For the test, the target named is T1, PSMA expressing PC3 PiP cells (Homo sapiens, UniProt Q04609).
T1 construct: expressed in transfected cells; host or cells: PC3 PIP cells
The test can be described thus: Binding of the PSMA targeting photoacoustic compound to PSMA-expressing PC3 PIP cells.

T1 sequence (Q04609 whole entry): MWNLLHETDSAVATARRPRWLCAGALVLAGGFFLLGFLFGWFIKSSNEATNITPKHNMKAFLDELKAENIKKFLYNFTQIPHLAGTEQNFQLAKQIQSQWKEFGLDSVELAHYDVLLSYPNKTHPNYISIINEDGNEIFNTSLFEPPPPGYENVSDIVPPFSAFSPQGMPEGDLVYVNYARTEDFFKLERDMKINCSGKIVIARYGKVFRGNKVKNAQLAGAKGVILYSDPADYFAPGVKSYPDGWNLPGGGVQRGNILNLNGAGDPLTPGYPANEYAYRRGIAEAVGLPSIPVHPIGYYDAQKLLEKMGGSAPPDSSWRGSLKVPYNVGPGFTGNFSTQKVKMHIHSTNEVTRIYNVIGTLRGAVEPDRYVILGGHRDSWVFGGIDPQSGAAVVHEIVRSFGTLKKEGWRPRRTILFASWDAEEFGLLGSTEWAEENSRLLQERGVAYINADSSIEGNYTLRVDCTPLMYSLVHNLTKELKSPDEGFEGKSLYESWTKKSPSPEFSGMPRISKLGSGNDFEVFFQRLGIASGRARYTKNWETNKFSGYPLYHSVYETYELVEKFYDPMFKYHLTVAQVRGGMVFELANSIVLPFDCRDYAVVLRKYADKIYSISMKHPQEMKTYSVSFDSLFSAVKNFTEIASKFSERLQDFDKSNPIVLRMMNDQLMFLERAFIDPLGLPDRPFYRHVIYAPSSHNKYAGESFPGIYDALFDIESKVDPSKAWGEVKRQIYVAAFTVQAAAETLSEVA

Regarding `O=C(O)CCC(CP(=O)(O)O)C(=O)O` (stereo not shown) [2-PMPA, 2-(phosphonomethyl)pentane-1,5 dioic acid], the “blocking of binding to PC3 PIP cells by co-incubation with 2-PMPA” value was “efficiently blocked”.

Values taken from patent US10869940B2, “Targeted photoacoustic compounds, formulations, and uses thereof” (The Board of Trustees of the Leland Stanford Junior …, priority 2015, dated 2020).
